test system: human IGF-IR mRNA; assay: Antisense inhibition of human IGF-IR mRNA levels by quantitative RT-PCR (Table 1); type: cell-based; design: %INHIB (human IGF-IR mRNA levels): concentration or dose not given beside the values; details: as shown in Table 1
Text: Treatment of A549 cell cultures with oligonucleotides targeting IGF-IR is as described in WO 2004/072284.
Quantitation of IGF-IR mRNA levels was accomplished by RT-PCR using the ABI PRISM (trademark) 7600, 7700, or 7900 Sequence Detection System (PE-Applied Biosystems, Foster City, Calif.) according to manufacturer's instructions. This is a closed-tube, non-gel-based, fluorescence detection system which allows high-throughput quantitation of PCR products in real-time. As opposed to standard PCR in which amplification products are quantitated after the PCR is completed, products in real-time quantitative PCR are quantitated as they accumulate. This is accomplished by including in the PCR reaction an oligonucleotide probe that anneals specifically between the forward and reverse PCR primers, and contains two fluorescent dyes. A reporter dye (e.g., FAM or JOE, obtained from either PE-Applied Biosystems, Foster City, Calif., Operon Technologies Inc., Alameda, Calif. or Integrated DNA Technologies Inc., Coralville, Iowa) is attached to the 5′-end of the probe and a quencher dye (e.g., TAMRA, obtained from either PE-Applied Biosystems, Foster City, Calif., Operon Technologies Inc., Alameda, Calif. or Integrated DNA Technologies Inc., Coralville, Iowa) is attached to the 3′-end of the probe. When the probe and dyes are intact, reporter dye emission is quenched by the proximity of the 3′ quencher dye. During amplification, annealing of the probe to the target sequence creates a substrate that can be cleaved by the 5′-exonuclease activity of Taq polymerase. […] With each cycle, additional reporter dye molecules are cleaved from their respective probes, and the fluorescence intensity is monitored at regular intervals by laser optics built into the ABI PRISM (trademark) Sequence Detection System. In each assay, a series of parallel reactions containing serial dilutions of mRNA from untreated control samples generates a standard curve that is used to quantitate the percent inhibition after antisense oligonucleotide treatment of test samples.
PCR reagents were obtained from Invitrogen Corporation, (Carlsbad, Calif.). RT-PCR reactions were carried out by adding 20 μL PCR cocktail (2.5×PCR buffer minus MgCl2, 6.6 mM MgCl2, 375 μM each of dATP, dCTP, […] and dGTP, 375 nM each of forward primer and reverse primer, 125 nM of probe, 4 Units RNAse inhibitor, 1.25 Units PLATINUM (registered trademark) Taq, 5 Units MuLV reverse transcriptase, and 2.5×ROX dye) to 96-well plates containing 30 μL total RNA solution (20-200 ng). The RT reaction was carried out by incubation for 30 minutes at 48° C. Following a 10 minute incubation at 95° C. to activate the PLATINUM (trademark) Taq, 40 cycles of a two-step PCR protocol were carried out: 95° C. for 15 seconds (denaturation) followed by 60° C. for 1.5 minutes (annealing/extension).
Gene target quantities obtained by RT-PCR are normalized using either the expression level of GAPDH, a gene whose expression is constant, or by quantifying total RNA using RiboGreen (trademark) (Molecular Probes, Inc. Eugene, Oreg.). GAPDH expression is quantified by RT-PCR, by being run simultaneously with the target, multiplexing, or separately. Total RNA is quantified using RiboGreen (trademark) RNA quantification reagent (Molecular Probes, Inc. Eugene, Oreg.). Methods of RNA quantification by RiboGreen (trademark) are taught in Jones et al., 1998.
Probes and primers to human IGF-IR were designed to hybridize to the IGF-IR nucleotide sequence, using published sequence information (GenBank accession number NM000875 (SEQ ID NO:76) or M69229 (SEQ ID NO:77) which is the 5′ untranslated of the IGF-IR gene sequence (see FIG. 6).
In accordance with the present invention, a series of antisense compounds were designed to target different regions of the human IGF-IR mRNA or the 5′ untranslated region, using published sequences set forth in NM000875 (SEQ ID NO:77) and M69229 (SEQ ID NO:76). […]

| Substance | inhibition of IGF-IR expression (lead compounds) |
| --- | --- |
| 175307 (antisense AAGTCTCAAACTCAGTCTTC; listed as DNA, chemistry not fully specified) [compound 175307] | demonstrated inhibition |
| 323737 (antisense CTGCTTCGGCTGGACATGGT; listed as DNA, chemistry not fully specified) [compound 323737] | demonstrated inhibition |
| 175308 (antisense GTCGTCGGCCTCCATTTTCA; listed as DNA, chemistry not fully specified) [compound 175308] | demonstrated inhibition |
| 175317 (antisense CGAAGGAAACAATACTCCGA; listed as DNA, chemistry not fully specified) [compound 175317] | demonstrated inhibition |

same assay, conditions: quantitative RT-PCR; averages from 3 experiments

| Substance | %INHIB (human IGF-IR mRNA levels) [%] |
| --- | --- |
| 323699 (antisense CTTCAGCTGCTGATAGTCGT; listed as DNA, chemistry not fully specified) [compound 323699] | 74 |
| 323720 (antisense CTCATTGTTGATGGTGGTCT; listed as DNA, chemistry not fully specified) [compound 323720] | 81 |
| 323698 (antisense GCTGCTGATAGTCGTTGCGG; listed as DNA, chemistry not fully specified) [compound 323698] | 72 |
| 323769 (antisense CATCACTGACCTCTTTCTAT; listed as DNA, chemistry not fully specified) [compound 323769] | 0 |
| 323700 (antisense CCCTCGATCACCGTGCAGTT; listed as DNA, chemistry not fully specified) [compound 323700] | 56 |
| 323740 (antisense CCACTCTGCTCTCAAAGAAA; listed as DNA, chemistry not fully specified) [compound 323740] | 0 |
| 323749 (antisense GCGCTGCAGCCCAGCTTCTC; listed as DNA, chemistry not fully specified) [compound 323749] | 71 |
| 175299 (antisense AATCTGCCTAGGCGAGGAAA; listed as DNA, chemistry not fully specified) [compound 175299] | 78 |
| 323760 (antisense GCGATCTCCCAGAGGACGAC; listed as DNA, chemistry not fully specified) [compound 323760] | 72 |
| 175309 (antisense GCAGAAACGCGGAGTCAAAA; listed as DNA, chemistry not fully specified) [compound 175309] | 72 |
| 323701 (antisense TTGGAGATGAGCAGGATGTG; listed as DNA, chemistry not fully specified) [compound 323701] | 65 |
| 175307 (antisense AAGTCTCAAACTCAGTCTTC; listed as DNA, chemistry not fully specified) [compound 175307] | 86 |
| 323765 (antisense AAAAAGCTGCTTGCATATTG; listed as DNA, chemistry not fully specified) [compound 323765] | 74 |
| 323746 (antisense TTCTCAGCCTCGTGGTTGCA; listed as DNA, chemistry not fully specified) [compound 323746] | 62 |
| 323737 (antisense CTGCTTCGGCTGGACATGGT; listed as DNA, chemistry not fully specified) [compound 323737] | 84 |
| 323761 (antisense TGTAGTAGAAGGAGACCTCC; listed as DNA, chemistry not fully specified) [compound 323761] | 26 |
| 323722 (antisense CGGTAGTTGTACTCATTGTT; listed as DNA, chemistry not fully specified) [compound 323722] | 71 |
| 323750 (antisense TTTAAAAAGATGGAGTTTTC; listed as DNA, chemistry not fully specified) [compound 323750] | 8 |
| 323757 (antisense CGGAGATAACTTTTGAGATC; listed as DNA, chemistry not fully specified) [compound 323757] | 35 |

| Substance | %INHIB (human IGF-IR mRNA levels) [%] |
| --- | --- |
| 323726 (antisense TGGGCACATTTTCTGGCAGC; listed as DNA, chemistry not fully specified) [compound 323726] | 57 |
| 175327 (antisense ACAAGTCTCAAACTCAGTCT; listed as DNA, chemistry not fully specified) [compound 175327] | 61 |
| 323718 (antisense ATGGTGGTCTTCTCACACAT; listed as DNA, chemistry not fully specified) [compound 323718] | 69 |
| 175294 (antisense GAAGTCCGGGTCACAGGCGA; listed as DNA, chemistry not fully specified) [compound 175294] | 77 |
| 323766 (antisense GCCCATGTCAGTTAAGGGTT; listed as DNA, chemistry not fully specified) [compound 323766] | 69 |
| 175305 (antisense ATCCAGGACACACACAAAGC; listed as DNA, chemistry not fully specified) [compound 175305] | 81 |
| 175308 (antisense GTCGTCGGCCTCCATTTTCA; listed as DNA, chemistry not fully specified) [compound 175308] | 94 |
| 175317 (antisense CGAAGGAAACAATACTCCGA; listed as DNA, chemistry not fully specified) [compound 175317] | 84 |
| 323695 (antisense CCTTTTATTTGGGATGAAAT; listed as DNA, chemistry not fully specified) [compound 323695] | 50 |
| 175297 (antisense TGCTGGTAAACAAGAGCCCC; listed as DNA, chemistry not fully specified) [compound 175297] | 61 |
| 175322 (antisense TCCGGGTCACAGGCGAGGCC; listed as DNA, chemistry not fully specified) [compound 175322] | 67 |
| 175310 (antisense GCGGCGAGCTCCTTCCCAAA; listed as DNA, chemistry not fully specified) [compound 175310] | 76 |
| 175295 (antisense AACAAGAGCCCCAGCCTCGC; listed as DNA, chemistry not fully specified) [compound 175295] | 76 |
| 175311 (antisense TAATGCTGGTAAACAAGAGC; listed as DNA, chemistry not fully specified) [compound 175311] | 53 |
| 323706 (antisense TGGTCATCTCGAAGATGACC; listed as DNA, chemistry not fully specified) [compound 323706] | 5 |
| 175293 (antisense GTTAATGCTGGTAAACAAGA; listed as DNA, chemistry not fully specified) [compound 175293] | 40 |
| 323703 (antisense GTCCTCGGCCTTGGAGATGA; listed as DNA, chemistry not fully specified) [compound 323703] | 71 |
| 323716 (antisense CACAGGTCCCCACATTCCTT; listed as DNA, chemistry not fully specified) [compound 323716] | 42 |

Source: patent US9084770B2, “Modulation of insulin like growth factor I receptor expression in cancer” (Antisense Therapeutics, Ltd., priority 2008, dated 2015)
